Source: patent publication US20100316626A1, “METHODS FOR TREATMENT AND DIAGNOSIS OF PSYCHIATRIC DISORDERS” (THE GOVERNMENT OF THE UNITED STATES OF AMERICA AS …, priority 2006, published 2010)

Assays:
[1] = tested on: basal synaptic transmission in hippocampal slices; assay: Basal synaptic transmission in acute hippocampal slices (field recordings); type: cell-based, mouse; settings: D2-selective inhibitors perfused in hippocampal slices; FIG. 11A
Method: (§1) Acute mouse hippocampal slice preparation: Hippocampal slices from 4 to 5 week old C57BL/6 mice were prepared in ice-cold artificial cerebrospinal fluid (ACSF) and cut on a 1000PLUS Vibratome (VIBRATOME, St. Louis, USA) to a thickness of ˜300 μm.
Electrophysiological recordings in mouse hippocampal slices: A single slice was transferred to a submerged recording chamber continuously perfused at a flow rate of 2 mL/min (30° C.) with recording ACSF (same as cutting ACSF minus the ascorbate, myo-inositol and pyruvate). Recordings were performed in 10 μM bicuculline (Tocris, USA) to block inhibitory activity. […] The AMPAR or NMDAR mediated EPSCs were measured 5 min prior to delivering the TBS, at approximately 20 min after inducing LTP (when the response stabilized), and at 10 and 40 min after commencing NRG-1β1 perfusion. In other experiments NMDAR EPSCs were recorded in potentiated slices prior to and after NRG-1 treatment at +40 mV (plus […] CNQX) to inhibit residual AMPAR currents. Paired-pulse facilitation was analyzed in whole-cell current-clamp recordings with inter-pulse intervals set to 50, 100, 150 and 200 msec.
Peptides corresponding to the splice variants of the EGF-like domains of NRG-1β1 and NRG-1α2 were dissolved in recording ACSF solution to a final concentration 0.1 or 1 nM. […] Data were analyzed for significance using the Student's t-test. […]

[2] = tested on: LTP at Schaffer collateral-CA1 synapses; assay: LTP and LTP depotentiation at Schaffer collateral-CA1 synapses in acute hippocampal slices; type: cell-based, mouse; settings: for block of the effects of NRG-1β on LTP by ErbB RTK inhibitors: inhibitor 10 μM applied 10 min prior to NRG-1, FIG. 3D
Method: as §1
Electrophysiological recordings in mouse hippocampal slices: A single slice was transferred to a submerged recording chamber continuously perfused at a flow rate of 2 mL/min (30° C.) with recording ACSF (same as cutting ACSF minus the ascorbate, myo-inositol and pyruvate). Recordings were performed in 10 μM bicuculline (Tocris, USA) to block inhibitory activity. […] A borosilicate two-barrel stimulation electrode (World Precision Instruments, Sarasota, Fla.) with a silver wire (A-M Systems, Carlsberg, Wash.) was filled with oxygenated ACSF recording solution and placed in the stratum radiatum to stimulate the Schaffer collateral/commissural fibers at 0.05 Hz (0.1 msec, 20-40 μA) via a stimulus isolator (A365, World Precision Instruments, Sarasota, Fla.). Data were collected with a Multiclamp 700A amplifier (Axon Instrument, Foster city, CA). The recordings were digitized at a sampling rate of 10 kHz and filtered at 3 kHz. Baseline fEPSP slopes were set to 40-50% of maximum response. Baseline recordings of at least 10 min were obtained once stable basal transmission was observed. LTP was induced using a theta burst stimulation (TBS) protocol that consisted of 5 trains delivered at 0.2 Hz. […] To measure the AMPAR or the NMDAR components of evoked EPSCs, voltage-clamp recordings from CA1 pyramidal neurons were performed at holding potentials of −70 mV to measure the AMPAR component (10 EPSCs during 1 min) or at +40 mV to measure the NMDAR component. The AMPAR or NMDAR mediated EPSCs were measured 5 min prior to delivering the TBS, at approximately 20 min after inducing LTP (when the response stabilized), and at 10 and 40 min after commencing NRG-1β1 perfusion. In other experiments NMDAR EPSCs were recorded in potentiated slices prior to and after NRG-1 treatment at +40 mV (plus […] CNQX) to inhibit residual AMPAR currents. Paired-pulse facilitation was analyzed in whole-cell current-clamp recordings with inter-pulse intervals set to 50, 100, 150 and 200 msec.
Peptides corresponding to the splice variants of the EGF-like domains of NRG-1β1 and NRG-1α2 were dissolved in recording ACSF solution to a final concentration 0.1 or 1 nM. NRG was delivered for 10 min in external recording ACSF solution 20, 30 or 50 min following TBS. The ErbB receptor inhibitors PD158780 (10 μM) and PD168393 (10 μM) were diluted in ACSF solution and applied to the slices 10 min prior to NRG-1 addition to ensure diffusion into the cell and efficient receptor inhibition. […] Data were analyzed for significance using the Student's t-test. […]

[3] = tested on: surface seGFP-GluR1 AMPA receptors; assay: Live imaging of surface seGFP-GluR1 in transfected dissociated hippocampal neurons; type: cell-based, rat; settings: PD158780 5 min before and during NRG-1; FIG. 6A
Method: Dissociated hippocampal cultures and chemLTP induction: Hippocampal neuronal cultures from E19 rat pups were prepared as reported previously. C. S. Herrmann et al., Clin Neurophysiol 116: 2719, 2005; A. Fisahn, et al., Nature 394: 186, 1998. Neurons were plated on 12 mm glass coverslips in 24 well plates at a density of 50,000 cells/well. ChemLTP was induced in cultures essential as described previously with minor modifications (Liao et al., 2001; Lu et al., 2001). Briefly, cells grown for 5 days in vitro (DIV5) were switched to medium containing 200 μM APV and maintained in Neurobasal media supplemented with B-27 (Invitrogen) until DIV18 to DIV22. […]
Live imaging in transfected hippocampal neurons of surface seGFP-tagged GluR1 AMPARs. […] Cells were perfused with […] glycine-containing medium used to induce chemLTP prior to capturing images and recorded for 4 min. […] Immediately after quenching with acidic MES buffer, cultures were switched back to 200 μM glycine in HBBSS (pH 7.4) for 2 min to recover the fluorescence. […] Images were detected with a cooled CCD camera (10 mW output, 12 bits, 1344×1024 pixels, Hamamatsu Orca ER) using 400 msec of exposure and 2×2 binning. Fluorescence was determined in 20-μm segments of neuronal processes that were at least 10 μm removed from the neuronal soma. […] Significance was evaluated by 1-way-ANOVA.

ErbB receptors [4] = settings: cited from earlier work
ErbB receptors [5] = settings: A431, SK-BR-3 and MDA-MB-453 cells; read-out: IC50 for block of ErbB phosphorylation; cited from earlier work
[6] = tested on: A431, SK-BR-3 and MDA-MB-453 cells; settings: cited from earlier work
PDGF receptor = settings: at μM concentrations; cited from earlier work
FGF receptor = settings: at μM concentrations; cited from earlier work

Row | SMILES | effect on basal synaptic transmission [1] | effect on NRG-1-evoked LTP depotentiation ([2]; 50 nM, FIG. 11C) | block of the effects of NRG-1β on LTP by ErbB RTK inhibitors [2] | effect on LTP depotentiation elicited by TPS ([2]; two-pathway approach, FIG. 4C,D) | block of NRG-1-induced internalization of seGFP-GluR1 [3] | dissociation rate and autophosphorylation inhibition of the receptors (ErbB receptors [4]) | Kd (ErbB receptors [4]; reconstituted receptors in vitro, read-out: affinities (binds competitively with ATP in the pocket)) | IC50 (ErbB receptors [5]) | concentration that blocks proliferation [6] | cross-reactivity with PDGF receptor (PDGF receptor) | cross-reactivity with FGF receptor (FGF receptor)
1 | Clc1ccc(N2CCN(Cc3c[nH]c4ncccc34)CC2)cc1 [L745870] | no effect | prevent NRG-1-evoked LTP depotentiation |  |  |  |  |  |  |  |  | 
2 | C=CC(=O)Nc1ccc2ncnc(Nc3cccc(Br)c3)c2c1 [PD168393, 4-[3(Bromophenyl)amino]-6-acrylamidoquinazoline] |  |  | completely blocked |  |  |  |  |  |  |  | 
3 | CNc1cc2c(Nc3cccc(Br)c3)ncnc2cn1 [PD158780, 4-[(3-Bromophenyl)amino]-6-(methylamino)-pyrido[3,4-d]pyridimine] |  |  | completely blocked | block LTP depotentiation | completely blocked | extremely slow (several hours) | 0.1 to 1 nM | 15 to 50 nM | 0.1 to 1 µM | no cross-reactivity | no cross-reactivity
